Laboratory results published in PMC5362899, “Structural insights into the nucleotide base specificity of P2X receptors” (Scientific Reports, 2017).

Target: T1, zfP2X4 (ΔP2X4-C) T189S mutant (Danio rerio, UniProt F8W463, N187R/N78K/T189S)
T1 construct: EGFP (N); octa-histidine tag (N); made in house; host or cells: Sf9 insect cells
T1 sequence (F8W463 28-365 N78K/N187R/T189S limits assumed): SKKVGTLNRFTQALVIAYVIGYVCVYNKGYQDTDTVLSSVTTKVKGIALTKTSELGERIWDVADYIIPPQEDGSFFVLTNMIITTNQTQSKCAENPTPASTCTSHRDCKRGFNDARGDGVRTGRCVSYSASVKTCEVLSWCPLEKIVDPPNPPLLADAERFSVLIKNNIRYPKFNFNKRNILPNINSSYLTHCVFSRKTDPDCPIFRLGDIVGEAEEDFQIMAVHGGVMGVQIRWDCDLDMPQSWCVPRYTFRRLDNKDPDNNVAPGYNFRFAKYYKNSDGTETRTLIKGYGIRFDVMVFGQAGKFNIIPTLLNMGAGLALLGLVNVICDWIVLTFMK
Test: ATR-FTIR difference spectroscopy, residual nucleotide after washing, zfP2X4 T189S
Type: binding, zebrafish
Settings: 10 μM nucleotide, after 15–30 min washing, P-O stretching bands 1250–800 cm−1
Excerpt: To further investigate the nucleotide binding specificity of zfP2X4, we applied ligand-binding induced difference Attenuated total reflectance (ATR)-Fourier-transform infrared (FTIR) spectroscopy on the WT and conserved threonine mutants (T189S and T189V) of zfP2X4.
Figure 5 ATR-FTIR spectroscopic analysis of zfP2X4 for the ATP and CTP bindings. (A) The reduction of the ligand binding induced difference spectra in the ΔP2X4-C ^zfWT, ^zfT189S and ^zfT189V mutants around the P-O stretching region (1250–800 cm^−1) after washing treatment for 15–30 min. (B) The residual nucleotides after the washing treatment estimated from the ATR-FTIR analysis in (A).
The nucleotide binding affinity of zfP2X4 was analyzed by reduction of the band intensity after washing treatment (Fig. 5). The reduction of the P-O stretching bands between 1250–800 cm^−1 was monitored for ATP (Fig. 5A). […]
The perfusion-induced difference FTIR spectroscopy was performed as similarly to the previous studies. […] ATR-FTIR spectra of the samples were recorded at 25 °C and 2 cm^−1 resolution using a VERTEX 70 spectrometer (Bruker Optics) equipped with a liquid-nitrogen-cooled MCT detector. […] The obtained difference spectra were normalized based on the absolute absorbance of the amide I band at 1653 cm^−1, which well correlates with the quantities of the proteins on the ATR crystals. […]

| SMILES | residual nucleotide binding after washing |
| --- | --- |
| Nc1ncnc2c1ncn2[C@@H]1O[C@H](COP(=O)(O)OP(=O)(O)OP(=O)(O)O)[C@@H](O)[C@H]1O [ATP, Adenosine 5-triphosphate] | ~ 60% |
| Nc1ccn([C@@H]2O[C@H](COP(=O)(O)OP(=O)(O)OP(=O)(O)O)[C@@H](O)[C@H]2O)c(=O)n1 [CTP] | ~ 30% |
